Results on 14 molecules are retold here after patent publication US5654299A, “Aryl substituted heterocycles” (Zeneca Limited, priority 1993, dated 1997).

Values joined by “and” are separate entries in the source; they are usually repeats but may differ in a detail not shown here. Equal entries are not always repeated. Structures can show the parent of a compound that is named as a salt. Where two headings read alike, the source gives them in different places. Bounds are passed on as bounds.

In assay [1] the target is NKA receptor from rat duodenum membranes. Particulars: Edmonds-Alt (1993), cited from earlier work; for Ki: rat duodenum membranes, read-out: inhibition constant (Ki), [125I]-NKA binding.
A further assay has as its target T1, guinea pig trachea (Cavia porcellus, UniProt Q64077).
T1 sequence (Q64077 1-402): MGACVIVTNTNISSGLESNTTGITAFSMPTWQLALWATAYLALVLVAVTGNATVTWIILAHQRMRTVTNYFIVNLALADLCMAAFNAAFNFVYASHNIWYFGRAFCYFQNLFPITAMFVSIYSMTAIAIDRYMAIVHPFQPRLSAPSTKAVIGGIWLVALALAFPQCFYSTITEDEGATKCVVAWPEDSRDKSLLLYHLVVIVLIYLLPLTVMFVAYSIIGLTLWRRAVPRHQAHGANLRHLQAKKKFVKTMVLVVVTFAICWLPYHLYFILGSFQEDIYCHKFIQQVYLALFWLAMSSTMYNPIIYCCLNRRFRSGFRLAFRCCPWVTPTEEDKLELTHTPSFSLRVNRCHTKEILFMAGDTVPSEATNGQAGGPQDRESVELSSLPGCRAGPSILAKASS
The assay can be described thus: Guinea Pig Trachea Assay (Test B), antagonism of NKA or [β-ala^8]-NKA(4-10). Particulars: for Kb: guinea pig trachea, apparent dissociation constant, -log molar KB. The assay is classed as cell-based.

Another assay addresses T2, human NK2 receptor (Homo sapiens, UniProt P21452).
T2 sequence (P21452 1-398): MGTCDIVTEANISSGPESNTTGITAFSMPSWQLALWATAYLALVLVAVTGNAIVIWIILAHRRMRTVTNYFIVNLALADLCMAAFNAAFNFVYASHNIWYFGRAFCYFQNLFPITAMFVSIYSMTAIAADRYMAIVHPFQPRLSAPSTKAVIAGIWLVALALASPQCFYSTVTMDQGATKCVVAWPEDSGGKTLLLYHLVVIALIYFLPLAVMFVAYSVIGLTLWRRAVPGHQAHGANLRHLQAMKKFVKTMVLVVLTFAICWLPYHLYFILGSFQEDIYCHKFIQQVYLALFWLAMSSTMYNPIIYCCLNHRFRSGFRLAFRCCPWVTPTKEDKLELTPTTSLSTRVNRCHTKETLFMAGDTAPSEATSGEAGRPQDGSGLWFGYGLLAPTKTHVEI
Nature of the assay: Neurokinin A (NKA) Receptor-binding Assay (Test A), 3H-NKA binding to MEL cell membranes (MELM).

The test system of the next assay is NK2 receptor. The assay can be described thus: Guinea Pig Labored Abdominal Breathing (Dyspnea) Assay (Test C), [β-ala^8]-NKA(4-10) aerosol. The settings on record: 5 μmol/kg p.o., 120 min prior. The assay is classed as in vivo. As for the experimental part: Guinea Pig Labored Abdominal Breathing (Dyspnea) Assay (Test C)
Using the clear plastic chamber described previously by Snyder et al. to secure guinea pigs for a head-only aerosol exposure to bronchoconstrictor agonists, agonist is administered by aerosol to six conscious guinea pigs simultaneously during each maneuver. The tachykinin NK2-selective agonist, [β-ala^8 ]-NKA(4-10), 3×10^-5 M, is aerosolized from a Devilhiss Model 25 ultrasonic nebulizer into an air stream entering the chamber at a rate of 2 L/minute.
Guinea pigs (275-400 g) are fasted for approximately 16 hours prior to experimentation. Compounds to be evaluated for blockade of effects of [β-ala^8 ]-NKA(4-10) or their vehicle (10% PEG400 in saline) are administered p.o. or i.v. at various times before aerosol agonist challenge. All animals are pretreated with atropine (10 mg/kg, i.p., 45 minutes pretreatment) indomethacin (10 mg/kg, i.p., 30 minutes pretreatment), propranolol (5 mg/kg, i.p., 30 minutes pretreatment), and thiorphan (1 mg/ml aerosol for 5 minutes, 15 minutes pretreatment).
Aerosol challenge with the agonist produces an initial increase in respiratory rate followed by a decrease with early signs of minor involvement of the abdominal muscles. The respiratory rate decreases further and the breathing becomes more labored with greater involvement of the abdominal muscles as exposure continues. The distinctly recognizable end point is the point where the breathing pattern of the guinea pig is consistently slow, deep, and deliberate, showing marked involvement of the abdominal muscles. Time, in seconds, from the onset of aerosol challenge to this end point is determined for each animal by using a stopwatch. […] Antagonists result in an increase in the time to reach the end point. Animals receive the aerosol administration of agonist for a maximum time of 780 seconds.
Differences between drug treated groups and corresponding vehicle treated control groups are compared using Student's t-test for unpaired observations.

For the next assay, the system named is neurokinin receptors. The settings on record: EPA 559538; cited from earlier work.
[2] abbreviates: read-out: pKB (Test B) (converted).

Protocol for guinea pig trachea: In the test described below either NKA or [β-ala^8 ]-NKA(4-10) is used as an agonist. The chosen agonist is referred to as AG throughout the description.
Male guinea pigs are killed by a sharp blow to the back of the head. The trachea are removed, trimmed of excess tissue and divided into two segments. Each segment is suspended as a ring between stainless steel stirrups in water-jacketed (37.5° C.) tissue baths containing a physiological salt solution of the following composition (mM): NaCl, 119; KCl 4.6; CaCl2, 1.8; MgCl2, 0.5; NaH2 PO4, 1; NaHCO3, 25; glucose, 11; thiorphan, 0.001; and indomethacin, 0.005; gassed continuously with 95% O2 -%5 CO2. Initial tension placed on each tissue is 1 g, which is maintained throughout a 0.5 to 1.5 hour equilibration period before addition of other drugs. Contractile responses are measured on a Grass polygraph via Grass FT-03 force transducers.
Tissues are challenged repetitively with a single concentration of AG (10 nM) with intervening 30 min periods with washing to allow the tension to return to baseline levels. The magnitude of the contractions to AG reaches a constant level after two challenges, and each Compound is tested for inhibition of responses to AG by addition to the tissue bath 15 minute before the third or subsequent exposure to the agonist. The contractile response to AG in the presence of Compound is compared to that obtained with the second AG challenge (in the absence of Compound). Percent inhibition is determined when a Compound produces a statistically significant (p<0.05) reduction of the contraction and is calculated using the second contractile response as 100%.
Potencies of selected Compounds are evaluated by calculating apparent dissociation constants (KB) for each concentration tested using the standard equation:
KB =[antagonist]/(dose ratio-1)
where dose ratio=antilog[(AG -log molar EC50 without Compound)-(AG -log molar EC50 with Compound)]. The KB values may be converted to the negative logarithms and expressed as -log molar KB (i.e. pKB). For this evaluation, complete concentration-response curves for AG are obtained in the absence and presence of Compound (30 min incubation period) using paired tracheal rings. The potency of AG is determined at 50% of its own maximum response level in each curve. The EC50 values are converted to the negative logarithms and expressed as -log molar EC50. Maximum contractile responses to AG are determined by expressing the maximum response to AG as a percentage of the contraction caused by carbachol (30 μM), added after the initial equilibration period. When a statistically significant (p<0.05) reduction of the maximum response to AG is produced by a compound, the percent inhibition is calculated relative to the percentage of carbachol contraction in the untreated, paired tissue used as 100%.
Protocol for human NK2 receptor: MEL C88 cells (A. Deisseroth et al., Cell (1978) 1-5, 55-63) were electroporated (M. Antoniou, Methods Molecular Biology (1991) 7, 421-434) with PvuI linearized pGSE1417/human NK2 receptor DNA. Directly after transfection, cells were diluted in culture medium to 10^4 and 10^5 cell per mL and 1 mL aliquots transferred to each well of a 24-well plate. G418 was added to a concentration of 1 mg/mL 24 hours after the transfection to select for stable transfectants. Individual clones were picked or pooled to generate populations seven to ten days after the addition of selective medium. […] Samples were taken 4 days post induction for mRNA and NKA binding analyses.
Membrane preparations (MELM) prepared from the MEL cells containing high-affinity NK2 receptors were prepared according to a published protocol (D. Aharony, et al., Neuropeptides (1992) 23, 121-130) with the following minor modifications: (1) Iodoacetamide (1 mM) was included in the homogenization buffer; (2) Homogenization was as published but for a shorter period of 10 seconds once and at a slower speed (setting 10); and (3) The equilibration step with KCl/EDTA was not performed.

A word on the Ki: it is a dissociation constant, usually derived from enzyme kinetics or from competition with a known ligand. Regarding `CC(=O)NC1(c2ccccc2)CCN(CC[C@H](CN(C)C(=O)c2ccccc2)c2ccc(Cl)c(Cl)c2)CC1` [SR 48968, N-[4-(4-acetylamino-4-phenylpiperidino)-2-(3,4-dichlorophenyl)butyl]-N-methylbenzamide, reference compound], in assay [1], the Ki was 0.5 nM.
On to `CN(CC(CCN1CC[C@H](c2ccccc2)[C@@H](O)C1)c1ccc(Cl)c(Cl)c1)C(=O)c1ccccc1` (relative stereo) [Example 10, N-[2-(3,4-Dichlorophenyl)-4-[(3R*,4R*)-3-hydroxy-4-phenylpiperidino]butyl-N-methylbenzamide hydrochloride], for which the Kb on guinea pig trachea (setting [2]) was 10 nM. For the same molecule, on human NK2 receptor (read-out: Ki (Test A)), the inhibitory constant (Ki) turned out to be 13 nM.
For `CN(C[C@@H](CCN1CCC(c2ccccn2)CC1)c1ccc(Cl)c(Cl)c1)C(=O)c1ccccc1.Cl` [Example 27, (S)-N-[2-(3,4-Dichlorophenyl)-4-[4-(2-pyridyl)piperidino]butyl]-N-methylbenzamide hydrochloride], the Kb at guinea pig trachea (setting [2]) is 12.6 nM. Further, at human NK2 receptor (read-out: Ki (Test A)), the inhibition constant (Ki) was 2 nM. In addition, in the assay on NK2 receptor, the “number fully protected/total number tested (Test C)” value is given as 2/6 and the “percent protection (Test C)” value turned out to be 54%.
As for `CN(CC(CCN1CCC(c2ccccc2O)CC1)c1ccc(Cl)c(Cl)c1)C(=O)c1ccccc1` (centres unmarked) [Example 6, N-[2-(3,4-Dichlorophenyl)-4-[4-(2-hydroxyphenyl)piperidino]butyl]-N-methylbenzamide hydrochloride], the Kb on guinea pig trachea (setting [2]) is 3.16 nM. Besides, the Ki at human NK2 receptor (read-out: Ki (Test A)) stood at 2.8 nM.
On to `CN(C[C@@H](CCN1CCC(c2ccccc2[S+](C)[O-])CC1)c1ccc(Cl)c(Cl)c1)C(=O)c1ccccc1.Cl` (stereo partly drawn) [Example 14, (S)-N-[2-(3,4-Dichlorophenyl)-4-[4-(2-methylsulfinylphenyl)piperidino]butyl]-N-methylbenzamide hydrochloride], for which the Kb at guinea pig trachea (setting [2]) is 0.316 nM. The inhibitory constant (Ki) at human NK2 receptor (read-out: Ki (Test A)) was determined as 0.3 nM. Further, in the assay on NK2 receptor, the “number fully protected/total number tested (Test C)” value is reported as 8/8 and the “percent protection (Test C)” value is on record as 100%.
Consider `CC(C)Oc1cccc(CC(=O)N(C)CC(CCN2CCC(c3ccccc3)CC2)c2ccc(Cl)c(Cl)c2)c1` (centres unmarked) [N-[2-(3,4-dichlorophenyl)-4-(4-phenylpiperidino)butyl]-N-methyl-3-isopropoxyphenylacetamide], for which the “affinity for neurokinin receptors” value in the assay on neurokinin receptors is “high affinity”.
Turning to `COc1ccccc1C1CCN(CCC(CN(C)C(=O)c2ccccc2)c2ccc(Cl)c(Cl)c2)CC1` (centres unmarked) [Example 2, N-[2-(3,4-Dichlorophenyl)-4-[4-(2-methoxyphenyl)piperidino]butyl]-N-methylbenzamide hydrochloride], the Kb at guinea pig trachea (setting [2]) is 5.01 nM. The Ki at human NK2 receptor (read-out: Ki (Test A)) worked out at 9 nM.
For `CSc1ccccc1C1CCN(CCC(CN(C)C(=O)c2ccccc2)c2ccc(Cl)c(Cl)c2)CC1.Cl` (centres unmarked) [Example 13, N-[2-(3,4-Dichlorophenyl)-4-[4-(2-methylthiophenyl)-piperidino]butyl]-N-methylbenzamide hydrochloride], at guinea pig trachea (setting [2]), the Kb was 2.51 nM. The inhibition constant (Ki) at human NK2 receptor (read-out: Ki (Test A)) turned out to be 3 nM. Moreover, in the assay with NK2 receptor, the “number fully protected/total number tested (Test C)” value was 3/6 and the “percent protection (Test C)” value is reported as 78%.
Turning to `CSc1ccc(C2CCN(CC[C@H](CN(C)C(=O)c3ccccc3)c3ccc(Cl)c(Cl)c3)CC2)cc1.Cl` [Example 15, (S)-N-[2-(3,4-Dichlorophenyl)-4-[4-(4-methylthiophenyl)piperidino]butyl]-N-methylbenzamide hydrochloride], at guinea pig trachea (setting [2]), the Kb is 2 nM. In addition, the Ki at human NK2 receptor (read-out: Ki (Test A)) was 2 nM. Also, in the assay on NK2 receptor, the “number fully protected/total number tested (Test C)” value is listed as 6/6 and the “percent protection (Test C)” value amounted to 100%.
Regarding `CN(CC(CCN1CCC(c2ccccc2)CC1)c1ccc(Cl)c(Cl)c1)C(=O)c1ccccc1.Cl` (centres unmarked) [Example 1, N-[2-(3,4-Dichlorophenyl)-4-(4-phenylpiperidino)butyl]-N-methylbenzamide hydrochloride], in assay [1], the “biological activity of the benzamide in words” value is reported as “lack of biological activity” and the inhibition constant Ki is above 100 nM. The “NK2 antagonism in words, Test B” value on guinea pig trachea (functional assay Test B) is “potent NK2 antagonist”. Further, on guinea pig trachea (setting [2]), the Kb is 10 nM and 6.31 nM. Also, on human NK2 receptor (in vitro screen Test A), the “NK2 antagonism in words, Test A” value was “potent NK2 antagonist”. The inhibition constant Ki at human NK2 receptor (read-out: Ki (Test A)) was found to be 2.6 nM. Also, in the assay on NK2 receptor, the “number fully protected/total number tested (Test C)” value is recorded as 0/6 and the “percent protection (Test C)” value worked out at 17%.
For `CN(C[C@@H](CCN1CCC(c2ccc([S+](C)[O-])cc2)CC1)c1ccc(Cl)c(Cl)c1)C(=O)c1ccccc1.Cl` (stereo partly drawn) [Example 16, (S)-N-[2-(3,4-Dichlorophenyl)-4-[4-(4-methylsulfinylphenyl)piperidino]butyl]-N-methylbenzamide hydrochloride], the Kb on guinea pig trachea (setting [2]) was 6.31 nM. In addition, at human NK2 receptor (read-out: Ki (Test A)), the Ki was found to be 0.6 nM. Also, in the assay with NK2 receptor, the “number fully protected/total number tested (Test C)” value is reported as 5/6 and the “percent protection (Test C)” value amounted to 88%.
On to `CN(CC(CCN1CCC2(CC1)OC(=O)c1ccccc12)c1ccc(Cl)c(Cl)c1)C(=O)c1ccccc1` (centres unmarked) [Example 24, N-[2-(3,4-Dichlorophenyl)-4-(3-oxospiro[isobenzofuran-1(3H),4'-piperidin]-1'-yl)butyl]-N-methylbenzamide hydrochloride], for which, on guinea pig trachea (pKB (Test B)), the Kb was 6.31 nM. The Ki at human NK2 receptor was determined as 3.5 nM.
For the molecule `Cc1nnc(C2CCN(CCC(CN(C)C(=O)c3ccccc3)c3ccc(Cl)c(Cl)c3)CC2)o1` (centres unmarked) [Example 7, N-[2-(3,4-Dichlorophenyl)-4-[4-(5-methyl-1,3,4-oxadiazol-2-yl)piperidino]butyl]-N-methylbenzamide hydrochloride], at guinea pig trachea (setting [2]), the Kb was 79.4 nM. The Ki on human NK2 receptor (read-out: Ki (Test A)) was 21.1 nM.
Take `CN(C[C@@H](CCN1CCC(c2cccnc2)CC1)c1ccc(Cl)c(Cl)c1)C(=O)c1ccccc1.Cl` [Example 9, (S)-N-[2-(3,4-Dichlorophenyl)-4-[4-(3-pyridyl)piperidino]butyl]-N-methylbenzamide hydrochloride]: the Kb on guinea pig trachea (setting [2]) was 2.51 nM. For the same molecule, at human NK2 receptor (read-out: Ki (Test A)), the Ki is 2 nM. Further, in the assay on NK2 receptor, the “number fully protected/total number tested (Test C)” value is given as 5/6 and the “percent protection (Test C)” value stood at 90%.
